The text below walks through data of US7652037B2, “Methods of lowering lipid levels in a mammal” (City Of Hope, priority 2003, dated 2010).

The test system of assay [1] is STZ-Diabetic Rats. As to the kind of experiment: AGE immunohistochemistry of kidney (6D12 anti-CML antibody). The assay is classed as in vivo, rat. As for the experimental part: For immunohistochemical AGE staining, formalin-fixed […] embedded sections (2 μm thick) were mounted on slides coated with 2-aminopropyltriethoxy silane, baked for 3 hours at 58° C., deparaffinized, rinsed with 3% hydrogen peroxide, and incubated with Proteinase K (0.5 mg/mL) for 5 minutes at room temperature. These sections were washed with rinse buffer and blocked with Protein Blocking Agent for 5 minutes and subsequently incubated with 6D12 anti-AGE mouse monoclonal antibody specific for CML for 30 minutes at room temperature. After washing with rinse buffer, the sections were incubated with EnVision™ with labeled polymer peroxidase-conjugated mouse anti-IgG for 30 minutes at room temperature, followed by detection with 3,3′-diaminobenzidine tetrahydrochloride solution as chromogen and 50% hematoxylin as counterstain.

Assay [2] relates to STZ-Diabetic Rats. Briefly: Nitrotyrosine staining of kidney. Type of assay: in vivo, rat. As for the experimental part:
Nitrotyrosine, a marker for protein oxidation, was used as an index of oxidative tissue damage caused by reactive nitrogen species. Immunohistochemical detection of nitrotyrosine was performed as reported previously (Forbes et al., Diabetes 51:3274-3282, 2002) and followed in this study with little modification. Briefly, formalin-fixed kidney sections (5 μm thick), taken from representative rats from each treatment group at 32 weeks, were mounted on slides, dewaxed and hydrated. After incubation with Proteinase K for 10 minutes, sections were incubated in 3% hydrogen peroxide for 20 minutes, blocked with normal porcine serum for 20 minutes, and then stained with commercially available rabbit polyclonal anti-nitrotyrosine antibodies for 1 hour. After rinsing with DAKO rinse buffer, sections were incubated with biotinylated anti-rabbit IgG for 25 minutes, followed by incubation with avidin-biotin horseradish peroxidase complex for 25 minutes.

Consider “methylene bis(4,4′-(2-chlorophenylureidophenoxyisobutyric acid) [LR-90]”, for which the “AGE staining in kidney glomeruli and cortical tubules” value in the assay on STZ-Diabetic Rats [1] was “visibly reduced”. The “nitrotyrosine staining in renal cortical tubules” value in the assay with STZ-Diabetic Rats [2] is recorded as “decreased the overall oxidative damage”.
